Here are results for 4 molecules from ChEMBL document CHEMBL1156330, “Discovery of a spiroindane based compound as a potent, selective, orally bioavailable melanocortin subtype-4 receptor agonist” (Bioorg Med Chem Lett, 2010).

Data set [1] addresses T1, Melanocortin receptor 4 (Homo sapiens, UniProt P32245). Description: Displacement of [125I]NDP-alpha-MSH from human MC4R expressed in CHO cells. It is filed as cell-based.
The target of data set [2] is T1, Melanocortin receptor 4. The data set is described as follows: Agonist activity at human MC4R expressed in CHO cells assessed as stimulation of intracellular cAMP accumulation. It counts as functional, cell-based.
Data set [3] concerns the target T1, Melanocortin receptor 4. The data set is described as follows: Agonist activity at human MC4R expressed in CHO cells assessed as stimulation of intracellular cAMP accumulation at 10 uM relative to alpha-MSH. It is filed as functional, cell-based.
For data set [4], the target named is T2, Melanocyte-stimulating hormone receptor (Homo sapiens, UniProt Q01726). The data set is described as follows: Agonist activity at human MC1R expressed in CHO cells assessed as stimulation of intracellular cAMP accumulation at 10 uM relative to alpha-MSH. It counts as functional, cell-based.
Target sequence in this assay (Q01726 whole entry, looked up): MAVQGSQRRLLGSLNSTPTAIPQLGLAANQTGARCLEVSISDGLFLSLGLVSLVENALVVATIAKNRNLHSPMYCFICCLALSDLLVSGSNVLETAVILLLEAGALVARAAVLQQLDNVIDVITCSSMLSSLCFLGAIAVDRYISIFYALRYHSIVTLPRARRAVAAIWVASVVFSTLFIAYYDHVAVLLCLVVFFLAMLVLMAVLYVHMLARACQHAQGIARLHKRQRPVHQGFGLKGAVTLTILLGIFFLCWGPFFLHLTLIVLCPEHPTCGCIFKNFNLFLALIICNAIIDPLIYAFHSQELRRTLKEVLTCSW
Data set [5] deals with T2, Melanocyte-stimulating hormone receptor. Description: Agonist activity at human MC1R expressed in CHO cells assessed as stimulation of intracellular cAMP accumulation. It is filed as functional, cell-based.
Target sequence in this assay (Q01726 whole entry): as the sequence (Q01726 whole entry, looked up) above
Data set [6] addresses Melanocortin receptor 4 (Rattus norvegicus, UniProt P70596). The data set is described as follows: Agonist activity at rat MC4R expressed in CHO cells assessed as stimulation of intracellular cAMP accumulation. It counts as functional, cell-based.
Data set [7] deals with Melanocortin receptor 4 (Mus musculus) (UniProt P56450). Description: Agonist activity at mouse MC4R expressed in CHO cells assessed as stimulation of intracellular cAMP accumulation at 10 uM relative to alpha-MSH. It counts as functional, cell-based.
Sequence of Melanocortin receptor 4 (Mus musculus) (P56450 whole entry): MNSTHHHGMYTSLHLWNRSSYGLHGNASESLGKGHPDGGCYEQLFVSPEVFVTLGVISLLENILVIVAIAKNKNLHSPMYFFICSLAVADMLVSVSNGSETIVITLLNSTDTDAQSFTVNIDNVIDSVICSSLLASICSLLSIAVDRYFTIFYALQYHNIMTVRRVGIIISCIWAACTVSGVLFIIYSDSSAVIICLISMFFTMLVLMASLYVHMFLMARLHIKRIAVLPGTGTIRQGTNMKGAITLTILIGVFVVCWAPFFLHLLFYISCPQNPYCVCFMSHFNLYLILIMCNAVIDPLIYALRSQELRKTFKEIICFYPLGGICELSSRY
For data set [8], the target named is T3, Melanocortin receptor 3 (Homo sapiens, UniProt P41968). Description: Agonist activity at human MC3R expressed in CHO cells assessed as stimulation of intracellular cAMP accumulation at 10 uM relative to alpha-MSH. It counts as functional, cell-based.
T3 sequence (P41968 whole entry): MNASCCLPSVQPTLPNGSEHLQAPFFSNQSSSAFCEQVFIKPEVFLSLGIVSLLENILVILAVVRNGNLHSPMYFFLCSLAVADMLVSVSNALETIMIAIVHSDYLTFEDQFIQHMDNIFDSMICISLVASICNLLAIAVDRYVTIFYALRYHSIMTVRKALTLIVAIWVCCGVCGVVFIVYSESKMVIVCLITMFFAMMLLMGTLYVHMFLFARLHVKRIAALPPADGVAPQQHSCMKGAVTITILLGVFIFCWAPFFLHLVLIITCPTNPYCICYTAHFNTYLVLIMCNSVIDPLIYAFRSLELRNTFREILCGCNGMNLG
Data set [9] has as its target Melanocortin receptor 3 (Rattus norvegicus) (UniProt P32244). The data set is described as follows: Agonist activity at rat MC3R expressed in CHO cells assessed as stimulation of intracellular cAMP accumulation at 10 uM relative to alpha-MSH. It is filed as functional, cell-based.
Data set [10] deals with Rattus norvegicus. Description: Erectogenic activity in rat assessed as spontaneous erections at 0.001 mg/kg, iv for 30 mins. It is filed as functional.
A short description of data set [11]: Clearance in Beagle dog at 0.5 mg/kg, iv and 1.0 mg/kg, po. It counts as ADME, organism-based, Canis lupus familiaris. The conditions noted are these: in vivo.
For data set [12], the system named is Rattus norvegicus. The data set is described as follows: Erectogenic activity in rat assessed as spontaneous erections at 1 ug/kg, iv for 30 mins. It counts as functional.
Data set [13] can be described thus: Volume of distribution at steady state in rhesus monkey at 0.5 mg/kg, iv and 2 mg/kg, po. It is filed as ADME, organism-based, Macaca mulatta. The conditions noted are these: in vivo, read-out: Vdss.
For data set [14], the system named is Rattus norvegicus. Description: Antiobesity activity in po dosed DIO rat assessed as decrease in body weight after 14 days.
Data set [15] has as its target Melanocortin receptor 4 (Rattus norvegicus) (UniProt P70596). The data set is described as follows: Agonist activity at rat MC4R expressed in CHO cells assessed as stimulation of intracellular cAMP accumulation at 10 uM relative to alpha-MSH. It is filed as functional, cell-based.
Data set [16] is described as follows: Volume of distribution at steady state in Sprague-Dawley rat at 1 mg/kg, iv and 4 mg/kg, po. It is filed as ADME, organism-based. The conditions noted are these: in vivo, read-out: Vdss.
Data set [17] relates to Rattus norvegicus. Description: Erectogenic activity in rat assessed as spontaneous erections at 0.1 mg/kg, iv for 30 mins. It is filed as functional.
Data set [18] is described as follows: Clearance in rhesus monkey at 0.5 mg/kg, iv and 2 mg/kg, po. It counts as ADME, organism-based, Macaca mulatta. The conditions noted are these: in vivo.
In data set [19] the test system is Rattus norvegicus. Description: Erectogenic activity in rat assessed as spontaneous erections at 3 mg/kg, iv for 30 mins. It counts as functional.
Data set [20] is described as follows: Volume of distribution at steady state in Beagle dog at 0.5 mg/kg, iv and 1.0 mg/kg, po. It counts as ADME, organism-based, Canis lupus familiaris. The conditions noted are these: in vivo, read-out: Vdss.
Data set [21] addresses T4, Melanocortin receptor 5 (Homo sapiens, UniProt P33032). The data set is described as follows: Displacement of [125I]NDP-alpha-MSH from human MC5R expressed in CHO cells. It counts as cell-based.
Data set [22] deals with Rattus norvegicus. The data set is described as follows: Erectogenic activity in iv dosed rat assessed as spontaneous erections measured for 30 mins. It is filed as functional, organism-based.
The nature of data set [23]: Half life in rhesus monkey at 0.5 mg/kg, iv and 2 mg/kg, po. It is filed as ADME, organism-based, Macaca mulatta. The conditions noted are these: in vivo.
The nature of data set [24]: Half life in Sprague-Dawley rat at 1 mg/kg, iv and 4 mg/kg, po. It counts as ADME, organism-based. The conditions noted are these: in vivo.
Data set [25] in a line: Bioavailability in Sprague-Dawley rat at 1 mg/kg, iv and 4 mg/kg, po. It counts as ADME, organism-based. The conditions noted are these: in vivo.
The target of data set [26] is T2, Melanocyte-stimulating hormone receptor. Description: Displacement of [125I]NDP-alpha-MSH from human MC1R expressed in CHO cells. It counts as cell-based.
Target sequence in this assay (Q01726 whole entry): as the sequence (Q01726 whole entry, looked up) above
Data set [27] in a line: Clearance in Sprague-Dawley rat at 1 mg/kg, iv and 4 mg/kg, po. It is filed as ADME, organism-based. The conditions noted are these: in vivo.
In data set [28] the target is T4, Melanocortin receptor 5. Description: Agonist activity at human MC5R expressed in CHO cells assessed as stimulation of intracellular cAMP accumulation at 10 uM relative to alpha-MSH. It is filed as functional, cell-based.
Data set [29] concerns Rattus norvegicus. The data set is described as follows: Erectogenic activity in rat assessed as spontaneous erections at 1 mg/kg, iv for 30 mins. It counts as functional.
A short description of data set [30]: Bioavailability in Beagle dog at 0.5 mg/kg, iv and 1.0 mg/kg, po. The conditions noted are these: in vivo. It counts as ADME, organism-based, Canis lupus familiaris.
For data set [31], the target named is Melanocortin receptor 3 (Rattus norvegicus, UniProt P32244). Description: Agonist activity at rat MC3R expressed in CHO cells assessed as stimulation of intracellular cAMP accumulation. It counts as functional, cell-based.
Sequence of Melanocortin receptor 3 (Rattus norvegicus, UniProt P32244) (P32244 whole entry): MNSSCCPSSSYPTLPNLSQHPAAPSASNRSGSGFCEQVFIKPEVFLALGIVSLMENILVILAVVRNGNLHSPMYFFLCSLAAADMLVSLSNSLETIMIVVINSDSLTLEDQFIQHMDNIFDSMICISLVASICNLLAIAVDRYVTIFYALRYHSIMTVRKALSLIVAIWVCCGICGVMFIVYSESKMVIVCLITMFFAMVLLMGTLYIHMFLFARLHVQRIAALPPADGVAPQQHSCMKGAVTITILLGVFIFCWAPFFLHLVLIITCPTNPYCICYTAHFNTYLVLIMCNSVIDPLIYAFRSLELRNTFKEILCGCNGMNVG
In data set [32] the test system is Rattus norvegicus. The data set is described as follows: Antiobesity activity in po dosed DIO rat assessed as decrease in food intake after 14 days.
The nature of data set [33]: Half life in Beagle dog at 0.5 mg/kg, iv and 1.0 mg/kg, po. It is filed as ADME, organism-based, Canis lupus familiaris. The conditions noted are these: in vivo.
Data set [34] concerns the target T3, Melanocortin receptor 3. Description: Displacement of [125I]NDP-alpha-MSH from human MC3R expressed in CHO cells. It is filed as cell-based.
The target of data set [35] is Melanocortin receptor 4 (Mus musculus, UniProt P56450). Description: Agonist activity at mouse MC4R expressed in CHO cells assessed as stimulation of intracellular cAMP accumulation. It is filed as functional, cell-based.
Sequence of Melanocortin receptor 4 (Mus musculus, UniProt P56450) (P56450 whole entry): as the sequence (P56450 whole entry) above
Data set [36] concerns Rattus norvegicus. The data set is described as follows: Erectogenic activity in rat assessed as spontaneous erections at 0.01 mg/kg, iv for 30 mins. It counts as functional.
Data set [37] is described as follows: Bioavailability in rhesus monkey at 0.5 mg/kg, iv and 2 mg/kg, po. It counts as ADME, organism-based, Macaca mulatta. The conditions noted are these: in vivo.
The target of data set [38] is T3, Melanocortin receptor 3. Description: Agonist activity at human MC3R expressed in CHO cells assessed as stimulation of intracellular cAMP accumulation. It counts as functional, cell-based.

T1 sequence (P32245 whole entry): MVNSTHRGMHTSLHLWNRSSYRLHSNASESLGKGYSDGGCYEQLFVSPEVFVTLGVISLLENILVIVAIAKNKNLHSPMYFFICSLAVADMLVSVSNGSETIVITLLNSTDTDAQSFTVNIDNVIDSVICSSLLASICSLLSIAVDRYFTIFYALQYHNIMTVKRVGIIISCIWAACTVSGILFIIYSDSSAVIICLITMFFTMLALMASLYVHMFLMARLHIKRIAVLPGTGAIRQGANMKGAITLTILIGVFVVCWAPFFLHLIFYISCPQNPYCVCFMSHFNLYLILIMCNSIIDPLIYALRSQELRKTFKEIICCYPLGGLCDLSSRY
T4 sequence (P33032 whole entry): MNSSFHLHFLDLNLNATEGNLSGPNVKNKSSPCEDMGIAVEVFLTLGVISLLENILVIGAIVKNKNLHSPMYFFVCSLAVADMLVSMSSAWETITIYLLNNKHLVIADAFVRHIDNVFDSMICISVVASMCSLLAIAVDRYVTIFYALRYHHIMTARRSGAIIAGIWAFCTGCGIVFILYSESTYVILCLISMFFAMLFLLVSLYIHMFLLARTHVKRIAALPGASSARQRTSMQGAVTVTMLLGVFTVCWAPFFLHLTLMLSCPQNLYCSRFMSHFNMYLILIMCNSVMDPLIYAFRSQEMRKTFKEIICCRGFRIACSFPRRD
Sequence of Melanocortin receptor 3 (Rattus norvegicus) (P32244 whole entry): as the sequence (P32244 whole entry) above
Sequence of Melanocortin receptor 4 (Rattus norvegicus) (P70596 whole entry): as the sequence (P56450 whole entry) above, with Y21H, P36S, S199T, T239A, S329P, S330G counted along it
Sequence of Melanocortin receptor 4 (Rattus norvegicus, UniProt P70596) (P70596 whole entry): as the sequence (P56450 whole entry) above, with Y21H, P36S, S199T, T239A, S329P, S330G counted along it

`CC(=O)NC(C)(C)[C@@H]1CC2(CCN(C(=O)[C@H]3CN(C(C)(C)C)C[C@@H]3c3ccc(F)cc3F)CC2)c2cc(Cl)c(C)cc21` yielded an IC50 on Melanocortin receptor 4 [1] of 89 nM. At Melanocortin receptor 4 [2], the EC50 was 94 nM. The Emax on Melanocortin receptor 4 [3] was 107%; in data set [4], 15%.

For the molecule `CC(=O)NC(C)(C)[C@H]1CC2(CCN(C(=O)[C@H]3CN(C(C)(C)C)C[C@@H]3c3ccc(F)cc3F)CC2)c2cc(Cl)c(C)cc21`, the EC50 in data set [5] was 620 nM; on Melanocortin receptor 4 [2], 37.2 nM. The same molecule registered an IC50 at Melanocortin receptor 4 [1] of 39.7 nM. The Emax on Melanocortin receptor 4 [3] is 111%; in data set [4], 41%.

For the molecule `CC(=O)NC(C)(C)[C@H]1CC2(CCN(C(=O)[C@@H]3CN(C(C)(C)C)C[C@H]3c3ccc(F)cc3F)CC2)c2cc(Cl)c(C)cc21`, the EC50 in data set [5] amounted to 228 nM; on Melanocortin receptor 4 [2], 3.2 nM. This molecule also showed an IC50 on Melanocortin receptor 4 [1] of 4.3 nM. In addition, the Emax at Melanocortin receptor 4 [3] amounted to 97%; in data set [4], 39%.

Take `CC(=O)NC(C)(C)[C@@H]1CC2(CCN(C(=O)[C@@H]3CN(C(C)(C)C)C[C@H]3c3ccc(F)cc3F)CC2)c2cc(Cl)c(C)cc21`: the EC50 was found to be 2 nM at Melanocortin receptor 4 [6]; 1020 nM in data set [5]; 4.9 nM at Melanocortin receptor 4 [2]; 997 nM at Melanocortin receptor 3 [31]; 22 nM at Melanocortin receptor 4 [35]; 351 nM on Melanocortin receptor 3 [38]. Further, the Activity was 197% in data set [7]; 71% at Melanocortin receptor 3 [8]; 97% in data set [9]; 75% in the data set with Rattus norvegicus [10]; 83% in the data set with Rattus norvegicus [12]; “Dose-dependent effect” with Rattus norvegicus [14]. The Activity in data set [15] is 126%; in the data set on Rattus norvegicus [17], 100%; with Rattus norvegicus [19] it was 75%; in the data set on Rattus norvegicus [22], “Dose-dependent effect”; at Melanocortin receptor 5 [28] it was 9%; in the data set with Rattus norvegicus [29], 88%. The Activity result is “Dose-dependent effect” in the data set with Rattus norvegicus [32] and 92% in the data set with Rattus norvegicus [36]. Further, the clearance came out at 3.5 mL/min/kg in [11], 9.6 mL/min/kg in data set [18] and 12 mL/min/kg in [27]. In addition, the IC50 came to 13 nM at Melanocortin receptor 4 [1], 83.9 nM at Melanocortin receptor 5 [21], 1940 nM in data set [26] and 890 nM at Melanocortin receptor 3 [34]. The Vd in data set [13] was determined as 3.5 L/kg; in data set [16] it was 5.1 L/kg; in data set [20], 3.5 L/kg. For the same molecule, the half-life in [23] is 234 min; in data set [24] it was 270 min; in data set [33], 672 min. In addition, the values for the bioavailability in data set [25], in [30] and in [37] were 33%, 71% and 53%, respectively. For the same molecule, the figures for the Emax (at Melanocortin receptor 4 [3]; in [4]) were 105% and 18%, respectively.
